In PMC9231348, “Bio-Oriented Synthesis of Novel (S)-Flurbiprofen Clubbed Hydrazone Schiff’s Bases for Diabetic Management: In Vitro and In Silico Studies” (Pharmaceuticals, 2022):

Biological target: α-Glucosidase (E.C.3.2.1.20) (Saccharomyces cerevisiae, UniProt P53341)
Test: In vitro α-glucosidase inhibition assay
Type: biochemical
Experimental: α-Glucosidase (E.C.3.2.1.20) enzyme inhibition assay was developed by using 0.1 M phosphate buffer (pH 6.8) at 37 °C [39, 40, 41]. The enzyme (0.2 μ/mL) was incubated in phosphate-buffered saline with different concentrations of tested compounds at 37 °C for 15 min. […] Test compounds were substituted with DMSO-d6 (7.5% final) in the control. […] The % inhibition was calculated by using the following formula:
% Inhibition = 100 − (OD test well/OD control) × 100.

Sequence of α-Glucosidase (E.C.3.2.1.20) (P53341 whole entry): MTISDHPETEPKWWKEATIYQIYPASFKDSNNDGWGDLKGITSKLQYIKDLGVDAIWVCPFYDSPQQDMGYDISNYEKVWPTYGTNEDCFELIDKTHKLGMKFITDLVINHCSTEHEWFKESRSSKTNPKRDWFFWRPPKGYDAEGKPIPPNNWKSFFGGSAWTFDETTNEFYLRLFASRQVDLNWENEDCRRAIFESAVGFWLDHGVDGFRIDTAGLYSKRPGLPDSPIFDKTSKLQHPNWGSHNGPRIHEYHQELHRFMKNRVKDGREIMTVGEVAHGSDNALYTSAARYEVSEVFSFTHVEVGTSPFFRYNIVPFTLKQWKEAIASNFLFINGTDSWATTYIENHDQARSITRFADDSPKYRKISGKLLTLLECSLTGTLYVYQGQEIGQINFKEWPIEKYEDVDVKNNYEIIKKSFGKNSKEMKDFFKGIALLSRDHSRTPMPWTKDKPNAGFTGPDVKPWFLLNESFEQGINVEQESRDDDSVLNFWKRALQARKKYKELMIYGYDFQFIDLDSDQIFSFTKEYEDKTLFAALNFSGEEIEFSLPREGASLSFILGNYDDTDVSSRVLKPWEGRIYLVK

Row | α-glucosidase inhibitory activity (in words) | Structure (SMILES)
1 | moderate-to-low activities | C/C(=N\NC(=O)C(C)c1ccc(-c2ccccc2)c(F)c1)c1ccccc1 (centres unmarked) [Compound 5f, (E)-2-(2-Fluoro-[1,1′-biphenyl]-4-yl)-N′-(1-phenylethylidene)propanehydrazide]
2 | moderate-to-low activities | CC/C(=N\NC(=O)C(C)c1ccc(-c2ccccc2)c(F)c1)c1ccccc1 (centres unmarked) [Compound 5g, (E)-2-(2-Fluoro-[1,1′-biphenyl]-4-yl)-N′-(1-phenylpropylidene)propanehydrazide]

The remaining lines, values behind:

Row | Structure (SMILES) | α-glucosidase inhibitory activity (in words)
3 | COc1ccc(/C=N/NC(=O)C(C)c2ccc(-c3ccccc3)c(F)c2)cc1O (centres unmarked) [Compound 4f, (E)-2-(2-Fluoro-[1, 1′-biphenyl]-4-yl)-N′-(3-hydroxy-4-methoxybenzylidene)propanehydrazide] | moderate-to-low activities
4 | CCC/C=N/NC(=O)C(C)c1ccc(-c2ccccc2)c(F)c1 (centres unmarked) [Compound 4k, (E)-N′-Butylidene-2-(2-fluoro-[1,1′-biphenyl]-4-yl)propanehydrazide] | moderate-to-low activities
5 | CC(C(=O)N/N=C/c1cccc2ccccc12)c1ccc(-c2ccccc2)c(F)c1 (centres unmarked) [Compound 4n, (E)-2-(2-Fluoro-[1,1′-biphenyl]-4-yl)-N′-(naphthalen-1-ylmethylene)propanehydrazide] | moderate-to-low activities

Test system: not given
Test: not given

Row | melting point | Structure (SMILES)
6 | 152 °C | C/C(=N\NC(=O)C(C)c1ccc(-c2ccccc2)c(F)c1)c1ccc(O)cc1 (centres unmarked) [Compound 5a, (E)-2-(2-Fluoro-[1,1′-biphenyl]-4-yl)-N′-(1-(4-hydroxyphenyl)ethylidene)propanehydrazide]
7 | 175 °C | C/C(=N\NC(=O)C(C)c1ccc(-c2ccccc2)c(F)c1)c1ccc([N+](=O)[O-])cc1 (centres unmarked) [Compound 5b, (E)-2-(2-Fluoro-[1,1′-biphenyl]-4-yl)-N′-(1-(4-nitrophenyl)ethylidene)propanehydrazide]
8 | 187 °C | COc1ccc2c(c1)CCC/C2=N\NC(=O)C(C)c1ccc(-c2ccccc2)c(F)c1 (centres unmarked) [Compound 5c, (E)-2-(2-Fluoro-[1,1′-biphenyl]-4-yl)-N′-(6-methoxy-3,4-dihydronaphthalen-1(2H) -ylidene)propanehydrazide]
9 | 181 °C | C/C(=N\NC(=O)C(C)c1ccc(-c2ccccc2)c(F)c1)c1ccccc1 (centres unmarked) [Compound 5f, (E)-2-(2-Fluoro-[1,1′-biphenyl]-4-yl)-N′-(1-phenylethylidene)propanehydrazide]
10 | 179 °C | CC/C(=N\NC(=O)C(C)c1ccc(-c2ccccc2)c(F)c1)c1ccccc1 (centres unmarked) [Compound 5g, (E)-2-(2-Fluoro-[1,1′-biphenyl]-4-yl)-N′-(1-phenylpropylidene)propanehydrazide]
11 | 177 °C | CC(C)/C(=N\NC(=O)C(C)c1ccc(-c2ccccc2)c(F)c1)c1ccccc1 (centres unmarked) [Compound 5h, (E)-2-(2-Fluoro-[1,1′-biphenyl]-4-yl)-N′-(2-methyl-1-phenylpropylidene)propanehydrazide]
12 | 165 °C | CCCC/C(=N\NC(=O)C(C)c1ccc(-c2ccccc2)c(F)c1)c1ccccc1 (centres unmarked) [Compound 5i, (E)-2-(2-Fluoro-[1,1′-biphenyl]-4-yl)-N′-(1-phenylpentylidene)propanehydrazide]
13 | 160 °C | C/C(=N\NC(=O)C(C)c1ccc(-c2ccccc2)c(F)c1)C1CC1 (centres unmarked) [Compound 5j, (E)-N′-(1-Cyclopropylethylidene)-2-(2-fluoro-[1,1′-biphenyl]-4-yl)propanehydrazide]
14 | 183 °C | CCC/C(=N\NC(=O)C(C)c1ccc(-c2ccccc2)c(F)c1)c1ccccc1 (centres unmarked) [Compound 5k, (E)-2-(2-Fluoro-[1,1′-biphenyl]-4-yl)-N′-(1-phenylbutylidene)propanehydrazide]
15 | 177 °C | CC(C(=O)NN=C1CCCCC1)c1ccc(-c2ccccc2)c(F)c1 (centres unmarked) [Compound 5l, N′-Cyclohexylidene-2-(2-fluoro-[1,1′-biphenyl]-4-yl)propanehydrazide]
16 | 198 °C | COc1ccccc1/C(C)=N/NC(=O)C(C)c1ccc(-c2ccccc2)c(F)c1 (centres unmarked) [Compound 5m, (E)-2-(2-Fluoro-[1,1′-biphenyl]-4-yl)-N′-(1-(2-methoxyphenyl)ethylidene)propanehydrazide]
17 | 192 °C | COc1ccc(/C(C)=N/NC(=O)C(C)c2ccc(-c3ccccc3)c(F)c2)cc1 (centres unmarked) [Compound 5n, (E)-2-(2-Fluoro-[1,1′-biphenyl]-4-yl)-N′-(1-(4-methoxyphenyl)ethylidene)propanehydrazide]

More lines, now with the values behind:

Row | Structure (SMILES) | melting point
18 | COc1cc(/C=N/NC(=O)C(C)c2ccc(-c3ccccc3)c(F)c2)cc(OC)c1OC (centres unmarked) [Compound 4a, (E)-2-(2-Fluoro-[1,1′-biphenyl]-4-yl)-N′-(3,4,5-trimethoxybenzylidene)propanehydrazide] | 139 to 140 °C
19 | CC(C(=O)N/N=C/c1cccc([N+](=O)[O-])c1)c1ccc(-c2ccccc2)c(F)c1 (centres unmarked) [Compound 4b, (E)-2-(2-Fluoro-[1,1′-biphenyl]-4-yl)-N′-(3-nitrobenzylidene)propanehydrazide] | 145 to 147 °C
20 | CC(C(=O)N/N=C/c1ccc(O)cc1O)c1ccc(-c2ccccc2)c(F)c1 (centres unmarked) [Compound 4c, (E)-N′-(2,4-Dihydroxybenzylidene)-2-(2-fluoro-[1,1′-biphenyl]-4-yl)propanehydrazide] | 133 to 135 °C
21 | COc1cccc(/C=N/NC(=O)C(C)c2ccc(-c3ccccc3)c(F)c2)c1O (centres unmarked) [Compound 4d, (E)-2-(2-Fluoro-[1,1′-biphenyl]-4-yl)-N′-(2-hydroxy-3-methoxybenzylidene)propanehydrazide] | 154 to 155 °C
22 | CCN(CC)c1ccc(/C=N/NC(=O)C(C)c2ccc(-c3ccccc3)c(F)c2)cc1 (centres unmarked) [Compound 4e, (E)-N′-(4-(Diethylamino)benzylidene)-2-(2-fluoro-[1,1′-biphenyl]-4-yl)propanehydrazide] | 144 to 145 °C
23 | COc1ccc(/C=N/NC(=O)C(C)c2ccc(-c3ccccc3)c(F)c2)cc1O (centres unmarked) [Compound 4f, (E)-2-(2-Fluoro-[1, 1′-biphenyl]-4-yl)-N′-(3-hydroxy-4-methoxybenzylidene)propanehydrazide] | 126 to 127 °C
24 | CC(C(=O)N/N=C/c1ccc(Br)cc1F)c1ccc(-c2ccccc2)c(F)c1 (centres unmarked) [Compound 4g, (E)-N′-(4-Bromo-2-fluorobenzylidene)-2-(2-fluoro-[1,1′-biphenyl]-4-yl)propanehydrazide] | 166 to 168 °C
25 | CC(C(=O)N/N=C/c1cccc(Br)c1)c1ccc(-c2ccccc2)c(F)c1 (centres unmarked) [Compound 4h, (E)-N′-(3-Bromobenzylidene)-2-(2-fluoro-[1,1′-biphenyl]-4-yl)propanehydrazide] | 147 to 148 °C
26 | CC(C(=O)NN=Cc1cc(Br)c(O)c(Br)c1)c1ccc(-c2ccccc2)c(F)c1 (centres unmarked) [Compound 4i, (E)-N′-(3,5-Dibromo-4-hydroxybenzylidene)-2-(2-fluoro-[1,1′-biphenyl]-4-yl)propane hydrazide] | 161 to 162 °C
27 | CCOc1cc(/C=N/NC(=O)C(C)c2ccc(-c3ccccc3)c(F)c2)ccc1O (centres unmarked) [Compound 4j, (E)-N′-(3-Ethoxy-4-hydroxybenzylidene)-2-(2-fluoro-[1,1′-biphenyl]-4-yl)propanehydrazide] | 173 to 174 °C
28 | CCC/C=N/NC(=O)C(C)c1ccc(-c2ccccc2)c(F)c1 (centres unmarked) [Compound 4k, (E)-N′-Butylidene-2-(2-fluoro-[1,1′-biphenyl]-4-yl)propanehydrazide] | 168 to 169 °C
29 | CCCCC/C=N/NC(=O)C(C)c1ccc(-c2ccccc2)c(F)c1 (centres unmarked) [Compound 4l, (E)-2-(2-Fluoro-[1, 1′-biphenyl]-4-yl)-N′-hexylidenepropanehydrazide] | 129 to 130 °C
30 | COc1ccccc1/C=N/NC(=O)C(C)c1ccc(-c2ccccc2)c(F)c1 (centres unmarked) [Compound 4m, (E)-2-(2-Fluoro-[1,1′-biphenyl]-4-yl)-N′-(2-methoxybenzylidene)propanehydrazide] | 131 to 132 °C
31 | CC(C(=O)N/N=C/c1cccc2ccccc12)c1ccc(-c2ccccc2)c(F)c1 (centres unmarked) [Compound 4n, (E)-2-(2-Fluoro-[1,1′-biphenyl]-4-yl)-N′-(naphthalen-1-ylmethylene)propanehydrazide] | 168 to 170 °C
32 | CC(C(=O)N/N=C/c1ccc(C(=O)O)cc1)c1ccc(-c2ccccc2)c(F)c1 (centres unmarked) [Compound 4p, (E)-4-((2-(2-(2-Fluoro-[1,1′-biphenyl]-4-yl)propanoyl)hydrazono)methyl)benzoic acid] | 176 to 177 °C
